We go through one compound from publication PMC4710668, “Bioactivation of food genotoxicants 5-hydroxymethylfurfural and furfuryl alcohol by sulfotransferases from human, mouse and rat: a comparative study” (Archives of Toxicology, 2014).

Molecules are shown by their SMILES. Where “and” joins values, the source holds several entries; their conditions need not be identical. Equal values may be shown once.

Holding throughout (assay): FFA sulfoconjugation assay (N6-MF-A formation with adenosine as scavenger)
Holding throughout (assay type): biochemical

The target of one assay is T1, mSult1c2 (Mus musculus, UniProt Q9D939).
T1 construct: made in house; host or cells: Salmonella typhimurium TA1538 (cytosolic fraction, enzyme not purified)
How it is done: (§1) Cytosolic fractions containing individual SULT forms were prepared from transgenic S. typhimurium TA1538. Table S1 in the Supplementary Material provides a summary of the thirty SULTs used in the current study together with references describing the cloning of the respective S. typhimurium TA1538 strains. The expressed SULT forms are denoted with the prefixes h, m and r for human, mouse and rat enzymes, respectively. Bacteria were grown in Luria Broth medium containing ampicillin (100 µg/ml) by stirring for 8 h at 200 revolutions/min at 37 °C. The bacterial suspensions were centrifuged at 5,000 g for 10 min. The sediments were washed twice with 25 ml of 10 mM potassium phosphate buffer (pH 7.4)/50 mM potassium chloride (KCP buffer) and centrifuged again. The pellets were taken up in 800 µl KCP buffer and sonicated thrice for 15 s with 30 s pauses in between. The soluble fraction was attained by centrifuging for 1 h at 100,000 g. The supernatants (in the following termed cytosolic preparations) were frozen at −80 °C. The protein concentrations were determined according to a bicinchoninic acid (BCA) assay protocol. The SULT concentrations in the cytosolic preparations were estimated after electrophoretic separation and immunodetection using inclusion bodies of different SULT forms as standards (Teubner et al. [2007]). The preparation of SULT inclusion bodies and the immunodetection of SULTs is described in the Supplementary Material, which also contains a representative immunoblot of different amounts of rSult1a1standard and a cytosolic preparation of S. typhimurium expressing rSult1a1 (Fig. S1).
(§2) The reaction mixtures were prepared as described for HMF. In addition, they contained 10 mM adenosine as a nucleophilic scavenger. Following incubation for 20 min at 37 °C, sulfoconjugation reactions were stopped by adding 100 µl cold methanol containing 175 fmol of [^15N5]N ^6-MF-A as the internal standard, mixed and centrifuged at 15,000 g for 10 min. The clear supernatants were subjected to UPLC-MS/MS analyses. Incubations were performed as quadruplicates. At higher concentrations, FFA reacts spontaneously with adenosine at low, but detectable, levels. To correct for the SULT-independent adduct formation, mixtures with SULT-deficient cytosols were carried along simultaneously in duplicate. Controls were subtracted from the experimental samples.
(§3) The ribonucleoside adduct N ^6-((furan-2-yl)methyl)-adenosine (N ^6-MF-A) was analyzed by isotope-dilution UPLC-MS/MS with the same system described above using a HSS T3 column (1.8 µm, 2.1 × 100 mm, Waters). Samples of 8 µl were eluted with 10 mM ammonium bicarbonate buffer, pH 8.0 (A) and methanol (B) using an 6-min gradient from 98 % solvent A to 15 % solvent A at 0.35 ml/min flow rate (Yin et al. [2013]). The electrospray interface of the mass spectrometer operated in the positive ion mode. The fragmentations of N ^6-MF-A into the aglycone cation [N ^6-((furan-2-yl)methyl)-adenine-H]^+ (m/z = 348.1 → 216.1), the cleavage of the 2-methylfuranyl cation (m/z = 348.1 → 81.0) and the release of [N ^6-methyl-adenine-H]^+ (m/z = 348.1 → 148.0) were monitored together with the corresponding fragmentations of the isotope-labeled internal standard [^15N5]N ^6-MF-A for the formation of the aglycone (m/z = 353.1 → 221.1), the 2-methylfuran cation (m/z = 353.1 → 81.0) and ^15N5-labeled N ^6-methyl-adenine (m/z = 353.1 → 153.0). The N ^6-MF-A content of the incubation mixture was calculated from the ratio of peak areas resulting from the total ion current of all three MRM signals of the analyte. For the fragmentation of N ^6-MF-A ([^15N5]N ^6-MF-A), collision energies were 20, 25 and 35 eV for the transitions m/z = 348.1 → 216.1 (m/z = 353.1 → 221.1), m/z = 348.1 → 148.0 (m/z = 353.1 → 153.0) and m/z = 348.1 → 81.0 (m/z = 353.1 → 81.0), respectively. […]

The target in the next assay is T2, hSULT1B1 (Homo sapiens, UniProt O43704).
T2 construct: made in house; host or cells: Salmonella typhimurium TA1538 (cytosolic fraction, not purified)
The method, then:
as §1, §2, §3

For a further assay, the target named is T3, hSULT4A1 (Homo sapiens, UniProt Q9BR01).
T3 construct: made in house; host or cells: Salmonella typhimurium TA1538 (cytosolic fraction, not purified)
T3 sequence (Q9BR01 1-284): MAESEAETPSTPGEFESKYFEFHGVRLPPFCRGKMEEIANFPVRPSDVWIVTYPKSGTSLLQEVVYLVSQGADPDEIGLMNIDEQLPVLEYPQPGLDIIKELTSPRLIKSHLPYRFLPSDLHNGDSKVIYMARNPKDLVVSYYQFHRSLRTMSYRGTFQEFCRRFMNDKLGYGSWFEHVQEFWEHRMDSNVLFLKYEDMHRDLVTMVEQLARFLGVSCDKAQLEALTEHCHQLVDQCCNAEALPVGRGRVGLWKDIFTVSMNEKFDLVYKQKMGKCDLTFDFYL
How it is done: as §1, §2, §3

A further assay addresses T4, hSULT2B1a (Homo sapiens, UniProt O00204).
T4 construct: made in house; host or cells: Salmonella typhimurium TA1538 (cytosolic fraction, not purified)
T4 sequence (O00204 1-350 isoform O00204-2): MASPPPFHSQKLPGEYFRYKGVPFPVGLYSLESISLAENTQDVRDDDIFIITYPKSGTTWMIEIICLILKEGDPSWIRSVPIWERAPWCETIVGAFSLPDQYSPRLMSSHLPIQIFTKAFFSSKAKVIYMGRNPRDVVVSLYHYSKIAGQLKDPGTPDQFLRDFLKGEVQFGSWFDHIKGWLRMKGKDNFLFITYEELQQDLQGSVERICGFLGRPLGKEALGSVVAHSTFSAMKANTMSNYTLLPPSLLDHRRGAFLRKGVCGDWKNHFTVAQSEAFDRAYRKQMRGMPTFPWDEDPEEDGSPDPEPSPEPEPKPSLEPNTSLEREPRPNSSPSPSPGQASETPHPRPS
How it is done: as §1, §2, §3

The next assay concerns the target T5, mSult1a1 (Mus musculus, UniProt P52840).
T5 construct: made in house; host or cells: Salmonella typhimurium TA1538 (cytosolic fraction, enzyme not purified)
The method, then: as §1, §2, §3

Setting [1] is: 1 mM FFA, corrected by actual SULT concentration in the cytosolic preparation.

T1 sequence (Q9D939 whole entry): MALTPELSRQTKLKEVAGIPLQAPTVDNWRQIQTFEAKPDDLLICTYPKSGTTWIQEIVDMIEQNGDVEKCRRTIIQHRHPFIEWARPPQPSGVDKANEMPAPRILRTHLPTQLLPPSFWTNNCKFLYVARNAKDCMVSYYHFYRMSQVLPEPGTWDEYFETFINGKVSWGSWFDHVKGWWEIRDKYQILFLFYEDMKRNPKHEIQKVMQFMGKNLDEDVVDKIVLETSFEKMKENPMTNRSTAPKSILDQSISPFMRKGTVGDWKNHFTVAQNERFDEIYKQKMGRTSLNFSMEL
T2 sequence (O43704 whole entry): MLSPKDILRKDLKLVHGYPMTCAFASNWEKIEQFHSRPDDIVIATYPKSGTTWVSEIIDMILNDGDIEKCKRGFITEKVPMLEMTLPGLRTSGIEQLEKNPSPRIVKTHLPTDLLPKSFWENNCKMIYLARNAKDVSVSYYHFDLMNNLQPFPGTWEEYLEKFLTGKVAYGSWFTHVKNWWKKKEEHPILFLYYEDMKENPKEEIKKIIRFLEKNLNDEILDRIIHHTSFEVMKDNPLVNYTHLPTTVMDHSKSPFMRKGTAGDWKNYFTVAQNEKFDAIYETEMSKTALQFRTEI
T5 sequence (P52840 whole entry): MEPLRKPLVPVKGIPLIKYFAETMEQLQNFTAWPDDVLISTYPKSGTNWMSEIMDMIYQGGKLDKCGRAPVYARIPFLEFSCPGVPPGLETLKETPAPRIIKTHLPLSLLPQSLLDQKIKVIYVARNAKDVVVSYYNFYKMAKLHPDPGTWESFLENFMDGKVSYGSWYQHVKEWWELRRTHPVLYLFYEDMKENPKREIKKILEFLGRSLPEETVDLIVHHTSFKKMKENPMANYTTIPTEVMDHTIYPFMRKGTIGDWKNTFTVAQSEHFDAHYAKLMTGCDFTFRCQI

On to `OCc1ccco1` [FFA, furfuryl alcohol], for which the “Rate of N6-MF-A formation” value is below 18 fmol N ^6-MF-A/mg/min at mSult1c2 (0.1 mM FFA); below 20 fmol N ^6-MF-A/mg/min at mSult1c2 (1 mM FFA); below 44 fmol N ^6-MF-A/mg/min on mSult1c2 (10 mM FFA); 23.3 ± 0.3 fmol N ^6-MF-A/mg/min on hSULT1B1 (0.1 mM FFA); 211 ± 2 fmol N ^6-MF-A/mg/min on hSULT1B1 (1 mM FFA); 1,070 ± 20 fmol N ^6-MF-A/mg/min on hSULT1B1 (10 mM FFA). For the same compound, the “Rate of N6-MF-A formation” value at hSULT4A1 (0.1 mM FFA) is recorded as below 18 fmol N ^6-MF-A/mg/min; at hSULT4A1 (1 mM FFA) it was below 20 fmol N ^6-MF-A/mg/min; on hSULT4A1 (10 mM FFA), below 44 fmol N ^6-MF-A/mg/min; at hSULT2B1a (0.1 mM FFA), below 18 fmol N ^6-MF-A/mg/min; at hSULT2B1a (1 mM FFA), below 20 fmol N ^6-MF-A/mg/min; at hSULT2B1a (10 mM FFA) it was below 44 fmol N ^6-MF-A/mg/min. The entries for the “Rate of N6-MF-A formation” value on mSult1a1 (0.1 mM FFA), at mSult1a1 (1 mM FFA) and on mSult1a1 (10 mM FFA) were 361 ± 4 fmol N ^6-MF-A/mg/min, 2,590 ± 20 fmol N ^6-MF-A/mg/min and 5,140 ± 60 fmol N ^6-MF-A/mg/min, respectively. Also, the “Rate of N6-MF-A formation (corr.)” value at hSULT1B1 (setting [1]) was 5,010 ± 50 fmol N ^6-MF-A/mg/min; on mSult1a1 (setting [1]), 61,700 fmol N ^6-MF-A/mg/min and 61,700 ± 400 fmol N ^6-MF-A/mg/min. Moreover, the “ratio of N6-MF-A formation rate, mSult1a1 vs mSult1d1” value on mSult1a1 (1 mM FFA, corrected rates) is “about 14 fold”.
